Patent US20110281917A1, “Substituted Benzimidazoles for the Treatment of Astrocytomas” (priority 2009, published 2011)

Key:
phospho-MEK = phospho-MEK ELISA in ST88 cells; type: cell-based
Excerpt: (§1) Pathway inhibition and anti-proliferative activity of RAF265 in ST88 cells.

phospho-ERK = phospho-ERK ELISA in ST88 cells; type: cell-based
Excerpt: as §1

ST88 cells = assay: Proliferation of ST88 cells; type: cell-based
Excerpt: as §1

[1] = test system: VEGF-CHO cells induced angiogenesis; assay: Matrigel plug angiogenesis model with VEGF-CHO cells, hemoglobin by Drabkin's reagent; type: in vivo; details: mice, dosed days 1 and 4, plugs excised day 5
Excerpt: Due to the inhibition of VEGFR-2, RAF265 also has anti-angiogenic activity which may also provide a therapeutic benefit in treating neurofibromas. To confirm that RAF265 inhibits the growth of new blood vessels (i.e., angiogenesis) in vivo, mice were implanted with Matrigel® containing Chinese hamster ovary cells (CHO) overexpressing VEGF and then treated mice with a dose range of RAF265 or a vehicle control (days 1 and 4). In this model, VEGF expressed from the CHO cells induces angiogenesis within the Matrigel® plug. Plugs are excised on day 5 and assayed for hemoglobin using Drabkin's reagent, as a measure of the degree of angiogenesis.

Cn1c(Nc2ccc(C(F)(F)F)cc2)nc2cc(Oc3ccnc(-c4ncc(C(F)(F)F)[nH]4)c3)ccc21 [Compound of Example 1]
EC50 (phospho-MEK): 150 nM | EC50 (phospho-ERK): 185 nM | EC50 (ST88 cells): 207 nM | dose of maximal suppression of hemoglobin content [1]: 50 mg/kg | hemoglobin content of Matrigel plug [1]: dose-dependent decrease in hemoglobin content
